Laboratory results from paper PMC2700083, “A covalent peptide inhibitor of RGS4 identified in a focused one-bead, one compound library screen” (BMC Pharmacology, 2009).
Numbering of substitutions follows the chain as printed. Marks after values point to notes of the source that are not given here. Where a SMILES comes first, the peptide text is derived from it. Bridges are numbered along the chain shown (N, C = ends).

Assays:
[1] = target: T1, RGS4Δ51N (Rattus norvegicus, UniProt P49799); assay: MALDI MS analysis of covalent adduct with RGS4Δ51N; conditions: 250 μM 5nd
T1 construct: MBP (N, cleaved yes); His6 (N, cleaved yes); made in house
T1 sequence (P49799 52-205 limits assumed): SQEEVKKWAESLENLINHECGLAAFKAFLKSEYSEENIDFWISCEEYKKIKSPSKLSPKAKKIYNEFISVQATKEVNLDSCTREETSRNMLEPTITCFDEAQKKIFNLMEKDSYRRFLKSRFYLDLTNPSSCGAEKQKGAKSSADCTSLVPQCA
Method: To directly test for the formation of a covalent adduct between 5nd and RGS4, we performed mass spectrometry (MS) analysis. The RGS4Δ51N protein, following TEV-protease cleavage from the MBP-His6 construct, was treated with 5nd at a 50:1 molar ratio. An adduct to the protein that is consistent with the mass of 5nd binding through a disulfide bridge was observed by MS (Figure 4, mass shift observed: Δ999.2 ± 1; expected: Δ998.5). […] There is also a small peak that may represent two peptides per RGS (observed: Δ1999.1 ± 2; expected: Δ1997.0).
Figure 4 MS analysis of RGS4 with and without 5nd pretreatment. RGS4Δ51N was cleaved from the MBP-His6 construct and subject to MALDI MS after pretreatment with DMSO (A) or 5nd (250 μM) (B). Both spectra show the region between 4,000 and 30,000 m/z and have the peak at 18158.8 or 18158.2 m/z for A and B, respectively, which corresponds to the cleaved RGS4Δ51N protein (black arrows). The spectrum in B also has a peak at 19158 m/z that corresponds to a peptide adduct (grey arrows). There is a very small peak at 20157.9 that may correspond to 2 peptides per RGS (grey arrows). The inset is a blow-up of the region between 17500 and 20500 m/z.
Total mass MS of 5 μM RGS4Δ51N was analyzed on a MicroMX MALDI MS instrument in positive ion mode with an accuracy of ± 0.1% after pretreatment with DMSO or 250 μM 5nd. […]

[2] = target: T2, RGS4 C95A (Rattus norvegicus, UniProt P49799, C95A); assay: FCPIA, RGS4 cysteine mutant C95A; format: binding; conditions: read-out: 5nd logIC50 (converted)
T2 construct: made in house
T2 sequence (P49799 52-205 C95A limits assumed): T1 sequence (P49799 52-205 limits assumed) with C44A
Method: (§1) Figure 5 Dose curves of 5nd on various RGS4 cysteine mutants. Various concentrations of 5nd were tested for disruption of the RGS4-Gαo interaction for C95A (5 nM), or […], C71A (5nM) or C148A (5nM) (B), A95C in the -7C (5nM), or A132C in the -7C (5nM) (C), A71C in the -7C (5nM), or A148C in the -7C (5nM) (D) or the mutant with no cysteines in the domain (20 nM) or the C-terminus (20 nM) (E) in the FCPIA (mean ± S.E.M., n ≥ 3).
(§2) Proteins were expressed, purified and labeled as described previously. The mutagenesis was done using the "QuickChange Multi Site-Directed Mutagenesis Kit" from Stratagene according to the manufacturer's protocol. The construct of RGS4 used in these studies is a maltose binding protein (MBP-) fusion protein of the RGS4 sequence from which the amphipathic N-terminal helix has been removed (i.e. MBP-RGS4Δ51N). For simplicity in the text, this will be referred to as RGS4. All other RGS proteins were human sequences and were used as Mpb fusions: RGS7 RGS domain (aa: 305–453), RGS8 full length, RGS16 full length, and RGS19ΔC11 (amino acids 1–209). To cleave RGS4Δ51N from the MBP-His6 construct for MS analysis, MBP-His6-RGS4Δ51N was treated with 15% MBP-His6-TEV protease S219V [11] for 22 hours at 4°C and purified over a Ni-NTA column.
(§3) FCPIA was performed as previously published.

[3] = target: T3, RGS4 C71A (Rattus norvegicus, UniProt P49799, C71A); assay: FCPIA, RGS4 cysteine mutant C71A; format: binding; conditions: read-out: 5nd logIC50 (converted)
T3 construct: made in house
T3 sequence (P49799 52-205 C71A limits assumed): T1 sequence (P49799 52-205 limits assumed) with C20A
Method: as §1, §2, §3

[4] = target: T4, RGS4 A71C, -7C (Rattus norvegicus, UniProt P49799, C132A/C148A/C183A/C197A/C204A/C95A); assay: FCPIA, RGS4 A71C in the -7C; format: binding; conditions: read-out: 5nd logIC50 (converted)
T4 construct: made in house
T4 sequence (P49799 52-205 C95A/C132A/C148A/C183A/C197A/C204A): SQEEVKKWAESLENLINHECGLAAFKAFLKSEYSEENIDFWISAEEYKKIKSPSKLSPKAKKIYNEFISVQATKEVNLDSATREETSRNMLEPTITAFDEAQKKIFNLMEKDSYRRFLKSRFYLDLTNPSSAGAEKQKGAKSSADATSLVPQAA
Method: as §1
The previous experiments tested which cysteines are necessary for inhibition by 5nd. In an alternative approach, we added cysteines back to the -7C mutant to determine which might be sufficient for 5nd activity. […] Furthermore, Cys132 is involved in the actions but this is clearly not sufficient to explain them. Thus it is concluded that 5nd is at least partially non-selective in its cysteine modification.
Proteins were expressed, purified and labeled as described previously. The mutagenesis was done using the "QuickChange Multi Site-Directed Mutagenesis Kit" from Stratagene according to the manufacturer's protocol. The construct of RGS4 used in these studies is a maltose binding protein (MBP-) fusion protein of the RGS4 sequence from which the amphipathic N-terminal helix has been removed (i.e. MBP-RGS4Δ51N). For simplicity in the text, this will be referred to as RGS4. […]

[5] = target: T5, RGS4 (Rattus norvegicus, UniProt P49799); assay: FCPIA (flow cytometry protein interaction assay), RGS4-Gαo interaction, wild type RGS4 (MBP-RGS4Δ51N); format: binding; conditions: peptide 50 μM; 25 nM Gαo-Alexa Fluor-532, 5 nM RGS4-biotin
T5 construct: made in house
T5 sequence (P49799 52-205 limits assumed): T1 sequence (P49799 52-205 limits assumed)
Method: We recently described a bead-based screen in which 2.5 × 10^6 different peptide sequences were prepared as a OBOC library. Fluorescently labeled RGS4 was used to probe the library for peptides that bind RGS4 [5]. […] Since the majority of those hit peptides could bind tightly to the RGS without disrupting GAP activity, they were also tested in the flow cytometry protein interaction assay (FCPIA) (Figure 1), which measures the interaction between RGS4 and Gαo. In this method we used a Luminex flow cytometer to detect the binding of Alexa Fluor 532-labeled Gαo to biotinylated RGS4 on avidin beads in the presence of AMF (AlCl3, MgCl2, NaF and GDP) to put the Gα subunit into a transition state-like conformation. Peptides were tested at 50 μM except where limited by solubility (Table 1).
Figure 1 Hit peptides in the FCPIA. Hit peptides from Roof, et al. 2008 were tested at 50 μM unless otherwise indicated for ability to disrupt the RGS4-Gαo interaction as described using 25 nM Gα o-Alexa Fluor-532 and 5 nM wild type RGS4-biotin (mean ± S.E.M., n ≥ 3) *p < 0.05, **p < 0.01, ***p < 0.001 compared to no peptide.
as §2, §3

Compound: CC(C)C[C@@H]1NC(=O)CNC(=O)[C@H](CCCCN)NC(=O)[C@@H](NC(=O)[C@H](Cc2c[nH]c3ccccc23)NC(=O)[C@@H](N)Cc2ccc(O)cc2)CSSC[C@@H](C(=O)N[C@@H](CCCCN)C(N)=O)NC1=O [Peptide 5nd, Tyr-Trp-c [Cys-Lys-Gly-Leu-Cys]-Lys-NH2, S-S] (H-YWCKGLCK-NH2; disulfide 3-7)
- mass shift observed, adduct of one peptide per RGS ([1]; 5 μM RGS4Δ51N (50:1), expected Δ998.5): 999.2 ± 1
- mass shift observed, small peak that may represent two peptides per RGS ([1]; 5 μM RGS4Δ51N, expected Δ1997.0): 1999.1 ± 2
- IC50 [2]: 19.5 µM
- IC50 [3]: 45.7 µM
- IC50 [4]: 631 µM
- % Inhibition of RGS4-Gαo [5]: 80 ± 5*** %
